The values that follow come from the supplement of paper PMC10307832.

Common to all, as to assay: relative viability (nuclei count vs DMSO), 5 days (fraction); higher = more cells survive
Compound in assay [1]: C1COCCN1C2=NC(=NC3=C2OC4=C3C=CC=N4)C5=CC(=CC=C5)NC(=O)C6=CN=C(C=C6)N + CC(=O)c1c(C)c2cnc(Nc3ccc(N4CCNCC4)cn3)nc2n(C2CCCC2)c1=O [Palbociclib] (partner 0.5 µM)
In a few lines:
(§1)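 Relative viability divides the nuclei count in treated wells by that in vehicle wells. Lung cancer cell lines were seeded in 1536-well plates, dosed by pin tool the next day, and fixed and stained after 5 days in one step with final 0.05% Triton X-100, 1% formaldehyde and 1 ug/ml Hoechst. Dosing was a single drug or a fixed anchor-drug dose plus five library-drug doses (not always all listed) in √10 steps, and values are medians of duplicate plates imaged at 4×.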

Compound in the assay “SGI-1776 + Bortezomib”: CN1CCC(CNc2ccc3ncc(-c4cccc(OC(F)(F)F)c4)n3n2)CC1 [SGI-1776] + CC(C)C[C@H](NC(=O)[C@H](Cc1ccccc1)NC(=O)c1cnccn1)B(O)O [Bortezomib] (partner 0.002 µM)
In a few lines:
as §1

Compound in the assay “SGI-1776 + Lapatinib”: CN1CCC(CNc2ccc3ncc(-c4cccc(OC(F)(F)F)c4)n3n2)CC1 [SGI-1776] + CS(=O)(=O)CCNCc1ccc(-c2ccc3ncnc(Nc4ccc(OCc5cccc(F)c5)c(Cl)c4)c3c2)o1 [Lapatinib] (partner 2 µM)
In a few lines: as §1

Compound in the assay “SGI-1776 + Foretinib”: CN1CCC(CNc2ccc3ncc(-c4cccc(OC(F)(F)F)c4)n3n2)CC1 [SGI-1776] + COc1cc2c(Oc3ccc(NC(=O)C4(C(=O)Nc5ccc(F)cc5)CC4)cc3F)ccnc2cc1OCCCN1CCOCC1 [Foretinib] (partner 0.25 µM)
In a few lines: as §1

On to NCI-H1650, for which the relative viability is 0.336 in assay [1] (first compound 0.02 µM); 0.321 in assay [1] (first compound 0.06325 µM); 0.274 in assay [1] (first compound 0.2 µM); 0.39 in assay [1] (first compound 0.6325 µM); 0.287 in assay [1] (first compound 2 µM); 0.217 with SGI-1776 + Bortezomib (first compound 0.08 µM). Also, the relative viability with SGI-1776 + Bortezomib (first compound 0.8 µM) was 0.18; with SGI-1776 + Bortezomib (first compound 2.53 µM) it was 0.207; in the assay with SGI-1776 + Bortezomib (first compound 8 µM) it was 0.181; in the assay with SGI-1776 + Lapatinib (first compound 0.08 µM), 0.877; in the assay with SGI-1776 + Lapatinib (first compound 0.8 µM), 0.983; in the assay with SGI-1776 + Lapatinib (first compound 2.53 µM) it was 0.809. Besides, the relative viability with SGI-1776 + Lapatinib (first compound 8 µM) came to 0.343; with SGI-1776 + Foretinib (first compound 0.08 µM) it was 1.02; with SGI-1776 + Foretinib (first compound 0.8 µM), 0.974; with SGI-1776 + Foretinib (first compound 2.53 µM), 0.729; with SGI-1776 + Foretinib (first compound 8 µM) it was 0.447.

Take NCI-H1651: the relative viability is 0.51 in assay [1] (first compound 0.02 µM); 0.509 in assay [1] (first compound 0.06325 µM); 0.499 in assay [1] (first compound 0.2 µM); 0.495 in assay [1] (first compound 0.6325 µM); 0.395 in assay [1] (first compound 2 µM); 0.976 in the assay with SGI-1776 + Bortezomib (first compound 0.08 µM). The relative viability with SGI-1776 + Bortezomib (first compound 0.8 µM) came to 0.923; in the assay with SGI-1776 + Bortezomib (first compound 2.53 µM), 0.874; in the assay with SGI-1776 + Bortezomib (first compound 8 µM) it was 0.889; with SGI-1776 + Lapatinib (first compound 0.08 µM), 0.822; with SGI-1776 + Lapatinib (first compound 0.8 µM), 0.871; in the assay with SGI-1776 + Lapatinib (first compound 2.53 µM) it was 0.76. The relative viability with SGI-1776 + Lapatinib (first compound 8 µM) is 0.709; with SGI-1776 + Foretinib (first compound 0.08 µM) it was 0.787; with SGI-1776 + Foretinib (first compound 0.8 µM), 0.75; with SGI-1776 + Foretinib (first compound 2.53 µM), 0.985; with SGI-1776 + Foretinib (first compound 8 µM), 0.794.

For the cell line NCI-H1666, the relative viability was found to be 0.627 in assay [1] (first compound 0.02 µM); 0.681 in assay [1] (first compound 0.06325 µM); 0.672 in assay [1] (first compound 0.2 µM); 0.622 in assay [1] (first compound 0.6325 µM); 0.571 in assay [1] (first compound 2 µM); 0.81 with SGI-1776 + Bortezomib (first compound 0.08 µM). The relative viability amounted to 0.826 with SGI-1776 + Bortezomib (first compound 0.8 µM); 0.918 with SGI-1776 + Bortezomib (first compound 2.53 µM); 0.56 with SGI-1776 + Bortezomib (first compound 8 µM); 0.645 with SGI-1776 + Lapatinib (first compound 0.08 µM); 0.765 in the assay with SGI-1776 + Lapatinib (first compound 0.8 µM); 0.581 with SGI-1776 + Lapatinib (first compound 2.53 µM). Moreover, the relative viability with SGI-1776 + Lapatinib (first compound 8 µM) came to 0.35; with SGI-1776 + Foretinib (first compound 0.08 µM) it was 0.975; with SGI-1776 + Foretinib (first compound 0.8 µM), 0.956; with SGI-1776 + Foretinib (first compound 2.53 µM), 0.948; with SGI-1776 + Foretinib (first compound 8 µM), 0.914.

NCI-H1734: the relative viability came out at 0.413 in assay [1] (first compound 0.02 µM); 0.355 in assay [1] (first compound 0.06325 µM); 0.342 in assay [1] (first compound 0.2 µM); 0.33 in assay [1] (first compound 0.6325 µM); 0.271 in assay [1] (first compound 2 µM); 0.903 with SGI-1776 + Bortezomib (first compound 0.08 µM). The relative viability with SGI-1776 + Bortezomib (first compound 0.8 µM) amounted to 1.11; in the assay with SGI-1776 + Bortezomib (first compound 2.53 µM), 0.88; with SGI-1776 + Bortezomib (first compound 8 µM), 0.739; with SGI-1776 + Lapatinib (first compound 0.08 µM) it was 1.13; with SGI-1776 + Lapatinib (first compound 0.8 µM), 1.05; with SGI-1776 + Lapatinib (first compound 2.53 µM), 1.11. Further, the relative viability with SGI-1776 + Lapatinib (first compound 8 µM) was found to be 0.938; with SGI-1776 + Foretinib (first compound 0.08 µM) it was 0.786; in the assay with SGI-1776 + Foretinib (first compound 0.8 µM), 0.913; in the assay with SGI-1776 + Foretinib (first compound 2.53 µM), 0.927; with SGI-1776 + Foretinib (first compound 8 µM) it was 0.483.

Consider NCI-H1755, for which the relative viability in assay [1] (first compound 0.02 µM) is 0.418; in assay [1] (first compound 0.06325 µM), 0.481; in assay [1] (first compound 0.2 µM), 0.442; in assay [1] (first compound 0.6325 µM), 0.426; in assay [1] (first compound 2 µM), 0.365; with SGI-1776 + Bortezomib (first compound 0.08 µM), 0.932. The relative viability with SGI-1776 + Bortezomib (first compound 0.8 µM) is 0.953; with SGI-1776 + Bortezomib (first compound 2.53 µM), 0.971; with SGI-1776 + Bortezomib (first compound 8 µM), 0.774; with SGI-1776 + Lapatinib (first compound 0.08 µM), 0.995; with SGI-1776 + Lapatinib (first compound 0.8 µM), 1.09; with SGI-1776 + Lapatinib (first compound 2.53 µM), 0.967. Moreover, the relative viability with SGI-1776 + Lapatinib (first compound 8 µM) came to 0.788; with SGI-1776 + Foretinib (first compound 0.08 µM) it was 0.949; with SGI-1776 + Foretinib (first compound 0.8 µM), 0.931; with SGI-1776 + Foretinib (first compound 2.53 µM) it was 0.881; with SGI-1776 + Foretinib (first compound 8 µM) it was 0.854.
